One experiment addresses T1, 5-HT2 receptor (Rattus norvegicus, UniProt P14842).
T1 construct: endogenous in cells; host or cells: A7r5 rat vascular smooth muscle cells
The experiment in a line: 5-HT2 functional assay: [Ca2+]i mobilization (FLIPR) in A7r5 cells. The class given is cell-based. The note with it: for Emax / Efficacy (Emax, %): percentage of maximum 5-HT-induced response; for Emax: read-out: Efficacy (Emax, %); for EC50: A7r5 rat vascular smooth muscle cells, FLIPR. The protocol:
5-HT2 Functional Assay: [Ca^2+]i Mobilization
The receptor-mediated mobilization on intracellular calcium ([Ca^2+]i) was studied using the Fluorescence Imaging Plate Reader (FLIPR) instrument. Rat vascular smooth muscle cells, A7r5, were grown in a normal media of […] and 10 μg/mL gentamycin. Confluent cell monolayers were trypsinized, pelleted, and re-suspended in normal media. Cells were seeded in a 50 μL volume at a density of 20,000 cells/well in a black wall, 96-well tissue culture plate and grown for 2 days.
On the day of the experiment, one vial of FLIPR Calcium Assay Kit dye was re-suspended in 50 mL of a FLIPR buffer consisting of Hank's Balanced Salt Solution (HBSS), 20 mM HEPES, and 2.5 mM probenecid, pH 7.4. Cells were loaded with the calcium-sensitive dye by addition of an equal volume ([…]) to each well of the 96-well plate and incubated with dye for 1 h at 23° C.
Compounds were diluted 1:50 in […]. For “hit” screening, compounds were further diluted 1:10 in FLIPR buffer and tested at a final concentration of 10 μM.
The compound plate and cell plate were placed in the FLIPR instrument. At the beginning of an experimental run, a signal test was performed to check the basal fluorescence signal from the dye-loaded cells and the uniformity of the signal across the plate. The basal fluorescence was adjusted between 8000-12000 counts by modifying the exposure time, the camera F-stop, or the laser power. Instrument settings for a typical assay were the following: laser power 0.3-0.6 W, camera F-stop F/2, and exposure time 0.4 sec. An aliquot (25 μL) of the test compound was added to the existing 100 μL dye-loaded cells at a dispensing speed of 50 μL/sec. Fluorescence data were collected in real-time at 1.0 sec intervals for the first 60 secs and at 6.0 sec intervals for an additional 120 secs.

For experiment [1], the system named is intraocular pressure (IOP). The experiment in a line: Acute IOP response in lasered (hypertensive) eyes of conscious cynomolgus monkeys. It is filed as in vivo. Particulars: lasered monkey eye. The protocol: Acute IOP Response in Lasered (Hypertensive) Eyes of Conscious Cynomolgus Monkeys
Intraocular pressure (IOP) can be determined with an Alcon Pneumatonometer after light corneal anesthesia with 0.1% proparacaine. Eyes are washed with saline after each measurement. After a baseline IOP measurement, test compound is instilled in one 30 μL aliquot to the right eyes only of nine cynomolgus monkeys. Vehicle is instilled in the right eyes of six additional animals. Subsequent IOP measurements are taken at 1, 3, and 6 hours.

The next experiment addresses brain 5-HT2 receptors (Rattus norvegicus, UniProt P14842). Kind of experiment: 5-HT2 receptor binding assay ([125I]DOI competition). Particulars: [125I]DOI displacement, rat or human cerebral cortex homogenates. How it is done:
5-HT2 Receptor Binding Assay
The assay mixture is incubated for 1 hour at 23° C. in polypropylene tubes and the assays terminated by rapid vacuum filtration over Whatman GF/B glass fiber filters previously soaked in 0.3% polyethyleneimine using ice-cold buffer. Test compounds (at different concentrations) are substituted for methiothepin. Filter-bound radioactivity is determined by scintillation spectrometry on a beta counter. The data are analyzed using a non-linear, iterative curve-fitting computer program [Trends Pharmacol. Sci., 16, 413 (1995)] to determine the compound affinity parameter. The concentration of the compound needed to inhibit the [^125I]DOI binding by 50% of the maximum is termed the IC50 or Ki value.

[2] abbreviates: EC50, nM (5-HT2 functional, [Ca2+]i mobilization).
Setting [3] is: 1 hour after single topical ocular instillation of 300 μg.
[4] abbreviates: 3 hours after single topical ocular instillation of 300 μg.
Setting [5] is: 6 hours after single topical ocular instillation of 300 μg.

Counter-ions that a name gives are not always drawn. Like-named read-outs stand apart in the source and are kept apart here.

The text below walks through data of patent US7396856B2, “Benzopyran analogs and their use for the treatment of glaucoma” (Alcon, Inc., priority 2002, dated 2008).

T1 sequence (P14842 whole entry): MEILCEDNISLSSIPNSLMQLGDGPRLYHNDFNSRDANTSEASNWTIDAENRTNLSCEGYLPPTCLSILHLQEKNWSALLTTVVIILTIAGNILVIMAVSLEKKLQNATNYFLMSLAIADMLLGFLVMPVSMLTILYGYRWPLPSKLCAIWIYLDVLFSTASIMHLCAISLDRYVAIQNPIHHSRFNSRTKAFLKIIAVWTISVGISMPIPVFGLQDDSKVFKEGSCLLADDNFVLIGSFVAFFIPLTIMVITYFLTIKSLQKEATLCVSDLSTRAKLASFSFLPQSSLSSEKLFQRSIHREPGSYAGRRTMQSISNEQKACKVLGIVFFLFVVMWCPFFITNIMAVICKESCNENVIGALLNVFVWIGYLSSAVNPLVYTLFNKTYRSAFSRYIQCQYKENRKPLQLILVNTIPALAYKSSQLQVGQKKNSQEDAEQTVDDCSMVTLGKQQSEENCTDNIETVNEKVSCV
Chain of brain 5-HT2 receptors (P14842 whole entry): as above

In the case of `COc1cc(CC(C)N)c(OC)c2c1CCOC2` (racemic) [Compound A, 2-(5,8-Dimethoxy-isochroman-7-yl)-1-methyl-ethylamine hydrochloride], the maximal effect (Emax) at 5-HT2 receptor (A7r5 cells) is 55%. Besides, a half-maximal response on 5-HT2 receptor (setting [2]) (EC50) required 267 nM.

On to `COc1cc(CC(C)N)c(OC)c2c1CCOC2.Cl` (single isomer, unassigned; (+)) [Compound C, (+) 2-(5,8-Dimethoxy-isochroman-7-yl)-1-methyl-ethylamine hydrochloride], for which the “Efficacy (Emax, %)” value at 5-HT2 receptor (A7r5 cells, hydrochloride) is on record as 69%. The compound further gave an EC50 on 5-HT2 receptor (setting [2]) of 43 nM.

As to `COc1cc(CC(C)N)c(OC)c2c1CCOC2.Cl` (single isomer, unassigned; (-)) [Compound B, (−) 2-(5,8-Dimethoxy-isochroman-7-yl)-1-methyl-ethylamine hydrochloride], the maximal response (Emax) on 5-HT2 receptor (A7R5, A7r5 cells) is 55%. Further, the 50% effective concentration (EC50) at 5-HT2 receptor (setting [2]) is 39 nM. Also, the entries for the “IOP lowering (%)” value in experiment [1] (setting [3]), in experiment [1] (setting [4]) and in experiment [1] (setting [5]) were 15.8%, 28.5% and 21.3%, respectively. Further, the “IOP lowering (mmHg)” value in experiment [1] (setting [3]) came out at 6.8 mmHg; in experiment [1] (setting [4]), 12.5 mmHg; in experiment [1] (setting [5]) it was 9.6 mmHg.

For the compound `COc1cc(CC(C)N)c(OC)cc1I` (stereo not drawn) [DOI, reference compound], at 5-HT2 receptor (A7r5 cells), the “Efficacy (Emax, %)” value worked out at 31%. Further, the EC50 on 5-HT2 receptor (read-out: EC50, nM (5-HT2 functional, [Ca2+]i mobilization)) was 30.2 nM. Further, the half-inhibitory concentration (IC50) at brain 5-HT2 receptors turned out to be 0.33 nM.
